Test results reported in publication PMC12767876, “Synthesis and evaluation of enantiomeric quinoline-2-carboxamides: positron emission tomography imaging agents for the translocator protein” (RSC Medicinal Chemistry, 2025).
Where two headings read alike, the source gives them in different places.

Legend:
[1] = target: T1, TSPO (Homo sapiens, UniProt P30536); assay: [3H]PK11195 competition binding assay on homogenised human brain tissue (frontal cortex) from rs6971 genotyped HAB, MAB and LAB donors; details: for influence of rs6971 polymorphism on binding: HAB vs. LAB, unpaired t-test, p = 0.5273, n = 6 per genotype
Method: All studies using human tissue were conducted and approved in accordance with the National Health Service Research Ethics Committee Southeast Scotland (NHS-RECSE, Edinburgh Brain and Tissue Bank, 16/ES/0084). Informed consents were obtained from human participants of this study. The Edinburgh Brain and Tissue code and BNN reference numbers for all new tissue samples used in this study are: SD022/13 (BBN_15222), SD038/13 (BBN_18391), SD037/14 (BBN_23395), SD051/14 (BBN_24340), SD012/15 (BBN_25055), SD032/16 (0.01.29084), SD027/12 (BBN_13410), SD038/12 (BBN_4176), SD006/14 (BBN_20593), SD008/14 (BBN_20592), SD020/14 (BBN_22611), SD011/15 (BBN_24781), SD023/12 (BBN_3785), SD029/13 (BBN_15809), SD036/13 (BBN_18392), SD046/13 (BBN_18407), SD034/14 (BBN_22628) and SD031/15 (001.26124). […] Binding was terminated with the addition of ice cold buffer before being immediately filtered over Whatman GF/B filter paper (Whatman, UK) pre-treated with 0.3% polyethylenimine (Sigma-Aldrich, USA) using a Brandel harvester (Brandel, USA). Filter paper was then removed, placed into Optiphase HiSafe 3 (2.5 mL) (Perkin Elmer, USA) and counted 48 h later on a Hidex 300 SL (Hidex, Finland). […] All binding assays were performed in triplicate. GraphPad Prism version 9 (GraphPad Software, USA) was used to fit all binding affinity curves. Curves were fitted using a one-site binding model.

[2] = target: human serum albumin (Homo sapiens, UniProt P02768); assay: HPLC determination of plasma protein binding using human serum albumin coated column; type: in vitro ADME; details: read-out: % PPB (plasma protein binding) (converted)
Text: (§1) The selection of potential candidates as neurological imaging agents requires evaluation of key physicochemical properties. […] For agents that rely primarily on passive diffusion, the membrane partition coefficient is particularly critical. […] Taken together, these physicochemical properties and in vivo studies support the potential of LW223 as a neurological imaging agent. Although the R-enantiomer of LW223 was used to determine the physicochemical properties in this study, these values are expected to be representative of the S-enantiomer, which is consistent with observations for other enantiomeric pairs.[32] [table]

[3] = target: T1, TSPO; set-up: method as in PMID 32859708; details: human brain (and heart) tissues, cited from earlier work
[4] = HPLC determination of membrane permeability (Pm) and membrane partition coefficient (Km) using immobilised artificial membrane (IAM) column; type: physicochemical
Text: as §1

[5] = set-up: method as in PMID 32859708, PMID 37795635; details: murine brain; cited from earlier work
[6] = HPLC determination of partition coefficient (log P) using C18 column; type: physicochemical
Text: as §1

T1 sequence (P30536 2-169): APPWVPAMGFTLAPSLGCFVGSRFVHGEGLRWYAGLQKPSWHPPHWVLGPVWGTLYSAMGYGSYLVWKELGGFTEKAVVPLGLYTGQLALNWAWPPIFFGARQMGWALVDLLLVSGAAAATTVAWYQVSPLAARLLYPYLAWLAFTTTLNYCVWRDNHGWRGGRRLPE
Sequence of human serum albumin (P02768 25-609): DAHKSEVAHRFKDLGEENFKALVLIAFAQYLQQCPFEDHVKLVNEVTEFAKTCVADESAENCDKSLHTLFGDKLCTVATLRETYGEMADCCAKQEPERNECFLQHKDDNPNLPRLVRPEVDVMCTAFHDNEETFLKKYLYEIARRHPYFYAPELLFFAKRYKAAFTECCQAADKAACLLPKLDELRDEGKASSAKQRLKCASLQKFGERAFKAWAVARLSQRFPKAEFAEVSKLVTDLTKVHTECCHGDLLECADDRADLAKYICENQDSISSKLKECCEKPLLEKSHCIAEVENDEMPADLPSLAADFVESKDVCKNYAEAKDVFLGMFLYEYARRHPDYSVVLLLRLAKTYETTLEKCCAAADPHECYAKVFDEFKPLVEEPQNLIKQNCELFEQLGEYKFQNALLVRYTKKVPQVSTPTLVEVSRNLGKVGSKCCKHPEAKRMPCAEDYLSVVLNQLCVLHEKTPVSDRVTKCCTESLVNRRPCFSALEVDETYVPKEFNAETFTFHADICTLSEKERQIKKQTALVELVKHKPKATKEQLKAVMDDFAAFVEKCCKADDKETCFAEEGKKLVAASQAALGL

Row | influence of rs6971 polymorphism on binding ([1]; listed as S-enantiomer) | fold lower affinity for TSPO compared to (R)-LW223 ([1]; human brain homogenate) | fold lower affinity for TSPO relative to PK11195 ([1]; human brain homogenate) | Ki ([1]; human brain homogenate, all genotypes (HAB, MAB, LAB), n = 18, 1 nM [3H]PK11195, 1.5 h at 4 °C, Kd […], mean ± SD, read-out: TSPO affinity (Ki)) | fraction unbound [2] | K m (membrane partition coefficient) [4] | chromatographic logP [6] | SMILES | influence of rs6971 polymorphism on binding [1] | influence of rs6971 polymorphism on binding [3] | influence of rs6971 polymorphism on binding ([3]; listed as (R)-LW223) | blood–brain barrier crossing and non-specific binding [5]
1 | insensitive to the rs6971 polymorphism | 7.5 fold | 3.75 fold | 4.5 ± 0.7 nM | – | – | – | CC[C@H](C)N(C)C(=O)c1nc2ccccc2c(-c2ccccc2)c1CF [(S)-LW223, (S)-(N-sec-Butyl)-3-(fluoromethyl)-N-methyl-4-phenylquinoline-2-carboxamide] | not significantly influenced by the rs6971 polymorphism | – | – | –
2 | – | – | – | – | 0.08 | 195 | 4.13 | CC[C@@H](C)N(C)C(=O)c1nc2ccccc2c(-c2ccccc2)c1CF [LW223, (R)-N-(sec-Butyl)-3-(fluoromethyl)-N-methyl-4-phenylquinoline-2-carboxamide] | – | unaffected by rs6971 | not significantly influenced by the rs6971 polymorphism | effectively crosses the BBB and exhibits low non-specific binding
3 | – | – | – | – | 0.08 | 184 | 3.98 | CCC(C)N(C)C(=O)c1cc2ccccc2c(-c2ccccc2Cl)n1 (centres unmarked) [PK11195, reference compound] | – | – | – | –
